Laboratory results reported in US5840684A, “Glycopeptide antibiotic derivatives” (Eli Lilly and Company, priority 1995, dated 1998).
Values after ≈ are worked out from the molar mass of the structure shown.

Assays:
[1] = tested on: Staphylococcus aureus S13E; format: cell-based
Procedure: (§1) The MIC's were determined using a standard broth micro-dilution assay.

[2] = tested on: Staphylococcus aureus SA1199B; format: cell-based
Procedure: as §1

[3] = tested on: Entercoccus faecium 180-1; assay: broth micro-dilution MIC; format: cell-based
Procedure: as §1

[4] = tested on: Entercoccus faecium 276; assay: broth micro-dilution MIC; format: cell-based
Procedure: as §1

[5] = tested on: Staphylococcus aureus 446; assay: broth micro-dilution MIC; format: cell-based
Procedure: as §1

[6] = tested on: Staphylococcus aureus 447; assay: broth micro-dilution MIC; format: cell-based
Procedure: as §1

[7] = tested on: Staphylococcus aureus 489; assay: broth micro-dilution MIC; format: cell-based
Procedure: as §1

[8] = tested on: Staphylococcus aureus 491; assay: broth micro-dilution MIC; format: cell-based
Procedure: as §1

[9] = tested on: Staphylococcus aureus SA1199A; assay: broth micro-dilution MIC; format: cell-based
Procedure: as §1

[10] = tested on: Staphylococcus aureus SA1199; assay: broth micro-dilution MIC; format: cell-based
Procedure: as §1

[11] = tested on: Staphylococcus aureus X400; assay: broth micro-dilution MIC; format: cell-based
Procedure: as §1

[12] = tested on: Staphylococcus aureus X778; assay: broth micro-dilution MIC; format: cell-based
Procedure: as §1

[13] = tested on: Streptococcus pyogenes C203; assay: broth micro-dilution MIC; format: cell-based
Procedure: as §1

[14] = tested on: Entercoccus faecium 180; assay: broth micro-dilution MIC; format: cell-based; conditions: Entercoccus faecium 180
Procedure: (§2) The formula I compounds have in vitro and in vivo activity against Gram-positive pathogenic bacteria. The MIC's were determined using a standard broth micro-dilution assay.

[15] = tested on: Entercoccus faecium 2041; assay: broth micro-dilution MIC; format: cell-based; conditions: Entercoccus faecium 2041
Procedure: as §2

[16] = tested on: Enterococcus gallinarum 245; assay: broth micro-dilution MIC; format: cell-based; conditions: Enterococcus gallinarum 245
Procedure: as §2

[17] = tested on: Staphylococcus epidermidis 270; assay: broth micro-dilution MIC; format: cell-based
Procedure: as §2

[18] = tested on: Staphylococcus haemolyticus 105; assay: broth micro-dilution MIC; format: cell-based
Procedure: as §2

[19] = tested on: Staphylococcus haemolyticus 415; assay: broth micro-dilution MIC; format: cell-based
Procedure: as §2

[20] = tested on: Streptococcus pneumoniae P1; assay: broth micro-dilution MIC; format: cell-based
Procedure: as §2

[21] = tested on: vancomycin-resistant enterococci; assay: broth micro-dilution, mean geometric MIC; format: cell-based, Enterococcus faecium and Enterococcus faecalis; conditions: enterococci, 24-hour incubation
[22] = tested on: vancomycin-susceptible enterococci; assay: broth micro-dilution, mean geometric MIC; format: cell-based, Enterococcus faecium and Enterococcus faecalis; conditions: enterococci, 24-hour incubation

Structure (SMILES)	MIC [1] [µg/mL]	MIC [2] [µg/mL]	MIC [3] [µg/mL]	MIC [4] [µg/mL]	MIC [5] [µg/mL]	MIC [6] [µg/mL]	MIC [7] [µg/mL]	MIC [8] [µg/mL]	MIC [9] [µg/mL]	MIC [10] [µg/mL]	MIC [11] [µg/mL]	MIC [12] [µg/mL]	MIC [13] [µg/mL]	MIC [14] [µg/mL]	MIC [15] [µg/mL]	MIC [16] [µg/mL]	MIC [17] [µg/mL]	MIC [18] [µg/mL]	MIC [19] [µg/mL]	MIC [20] [µg/mL]	other results
CCCCCCCCCCC#CCNC1(C)CC(OC2C(Oc3c4cc5cc3Oc3ccc(cc3Cl)C(OC3CC(C)(N)C(O)C(C)O3)C3NC(=O)C(NC(=O)C5NC(=O)C(CC(N)=O)NC(=O)C(NC(=O)C(CC(C)C)NC)C(O)c5ccc(c(Cl)c5)O4)c4ccc(O)c(c4)-c4c(O)cc(O)cc4C(C(=O)O)NC3=O)OC(CO)C(O)C2O)OC(C)C1O (stereo not drawn) [Compound 191]	2 (≈ 1.13 µM)	2 (≈ 1.13 µM)	0.25 (≈ 0.141 µM)	4 (≈ 2.26 µM)	2 (≈ 1.13 µM)	2 (≈ 1.13 µM)	2 (≈ 1.13 µM)	1 (≈ 0.565 µM)	0.5 (≈ 0.282 µM)	2 (≈ 1.13 µM)	1 (≈ 0.565 µM)	2 (≈ 1.13 µM)	≤ 0.06	4 (≈ 2.26 µM)	1 (≈ 0.565 µM)	8 (≈ 4.52 µM)	2 (≈ 1.13 µM)	2 (≈ 1.13 µM)	8 (≈ 4.52 µM)	≤ 0.06	mean geometric MIC, Vancomycin Resistant Strains [21]: 6.7 µg/mL; mean geometric MIC, Vancomycin Sensitive Strains [22]: 0.57 µg/mL
CNC(CC(C)C)C(=O)NC1C(=O)NC(CC(N)=O)C(=O)NC2C(=O)NC3C(=O)NC(C(=O)NC(C(=O)O)c4cc(O)cc(O)c4-c4cc3ccc4O)C(OC3CC(C)(N)C(O)C(C)O3)c3ccc(c(Cl)c3)Oc3cc2cc(c3OC2OC(CO)C(O)C(O)C2OC2CC(C)(NCc3cccnc3)C(O)C(C)O2)Oc2ccc(cc2Cl)C1O (stereo not drawn) [Compound 24]	≤ 0.06	2 (≈ 1.19 µM)	≤ 0.06	0.25 (≈ 0.148 µM)	0.5 (≈ 0.297 µM)	1 (≈ 0.594 µM)	≤ 0.06	0.5 (≈ 0.297 µM)	≤ 0.06	0.5 (≈ 0.297 µM)	0.25 (≈ 0.148 µM)	0.125 (≈ 0.0742 µM)	≤ 0.06	4 (≈ 2.38 µM)	≤ 0.06	0.25 (≈ 0.148 µM)	1 (≈ 0.594 µM)	4 (≈ 2.38 µM)	≤ 0.06	≤ 0.06	mean geometric MIC, Vancomycin Resistant Strains [21]: 54 µg/mL; mean geometric MIC, Vancomycin Sensitive Strains [22]: 0.67 µg/mL
CNC(CC(C)C)C(=O)NC1C(=O)NC(CC(N)=O)C(=O)NC2C(=O)NC3C(=O)NC(C(=O)NC(C(=O)O)c4cc(O)cc(O)c4-c4cc3ccc4O)C(OC3CC(C)(N)C(O)C(C)O3)c3ccc(c(Cl)c3)Oc3cc2cc(c3OC2OC(CO)C(O)C(O)C2OC2CC(C)(NCC3CCC(C4CCCCC4)CC3)C(O)C(C)O2)Oc2ccc(cc2Cl)C1O (stereo not drawn) [Compound 164]	4 (≈ 2.26 µM)	2 (≈ 1.13 µM)	≤ 0.06	1 (≈ 0.565 µM)	2 (≈ 1.13 µM)	2 (≈ 1.13 µM)	2 (≈ 1.13 µM)	1 (≈ 0.565 µM)	0.5 (≈ 0.282 µM)	2 (≈ 1.13 µM)	0.5 (≈ 0.282 µM)	1 (≈ 0.565 µM)	≤ 0.06	0.5 (≈ 0.282 µM)	1 (≈ 0.565 µM)	2 (≈ 1.13 µM)	1 (≈ 0.565 µM)	2 (≈ 1.13 µM)	2 (≈ 1.13 µM)	≤ 0.06	mean geometric MIC, Vancomycin Resistant Strains [21]: 1.7 µg/mL; mean geometric MIC, Vancomycin Sensitive Strains [22]: 0.11 µg/mL
CN[C@H](CC(C)C)C(=O)N[C@H]1C(=O)N[C@@H](CC(N)=O)C(=O)N[C@H]2C(=O)N[C@H]3C(=O)N[C@H](C(=O)N[C@H](C(=O)O)c4cc(O)cc(O)c4-c4cc3ccc4O)[C@H](O[C@H]3C[C@](C)(N)[C@@H](O)[C@H](C)O3)c3ccc(c(Cl)c3)Oc3cc2cc(c3O[C@@H]2O[C@H](CO)[C@@H](O)[C@H](O)[C@H]2O[C@H]2C[C@](C)(NCc3ccc(Oc4ccc(C(C)(C)C)cc4)cc3)[C@@H](O)[C@H](C)O2)Oc2ccc(cc2Cl)[C@H]1O [Compound 96]	1 (≈ 0.546 µM)	1 (≈ 0.546 µM)	0.25 (≈ 0.137 µM)	0.5 (≈ 0.273 µM)	1 (≈ 0.546 µM)	1 (≈ 0.546 µM)	1 (≈ 0.546 µM)	1 (≈ 0.546 µM)	≤ 0.06	2 (≈ 1.09 µM)	2 (≈ 1.09 µM)	1 (≈ 0.546 µM)	≤ 0.06	0.5 (≈ 0.273 µM)	1 (≈ 0.546 µM)	2 (≈ 1.09 µM)	2 (≈ 1.09 µM)	2 (≈ 1.09 µM)	2 (≈ 1.09 µM)	≤ 0.06	mean geometric MIC, Vancomycin Resistant Strains [21]: 1.4 µg/mL; mean geometric MIC, Vancomycin Sensitive Strains [22]: 0.11 µg/mL
CNC(CC(C)C)C(=O)NC1C(=O)NC(CC(N)=O)C(=O)NC2C(=O)NC3C(=O)NC(C(=O)NC(C(=O)O)c4cc(O)cc(O)c4-c4cc3ccc4O)C(OC3CC(C)(N)C(O)C(C)O3)c3ccc(c(Cl)c3)Oc3cc2cc(c3OC2OC(CO)C(O)C(O)C2OC2CC(C)(NCc3ccc(OS(=O)(=O)c4c(C)c(C)c(C)c(C)c4C)cc3)C(O)C(C)O2)Oc2ccc(cc2Cl)C1O (stereo not drawn) [Compound 173]	4 (≈ 2.1 µM)	4 (≈ 2.1 µM)	0.5 (≈ 0.262 µM)	2 (≈ 1.05 µM)	4 (≈ 2.1 µM)	4 (≈ 2.1 µM)	2 (≈ 1.05 µM)	2 (≈ 1.05 µM)	0.5 (≈ 0.262 µM)	2 (≈ 1.05 µM)	4 (≈ 2.1 µM)	4 (≈ 2.1 µM)	≤ 0.06	0.5 (≈ 0.262 µM)	0.5 (≈ 0.262 µM)	4 (≈ 2.1 µM)	2 (≈ 1.05 µM)	2 (≈ 1.05 µM)	4 (≈ 2.1 µM)	≤ 0.06	mean geometric MIC, Vancomycin Resistant Strains [21]: 2.0 µg/mL; mean geometric MIC, Vancomycin Sensitive Strains [22]: 0.12 µg/mL
CNC(CC(C)C)C(=O)NC1C(=O)NC(CC(N)=O)C(=O)NC2C(=O)NC3C(=O)NC(C(=O)NC(C(=O)O)c4cc(O)cc(O)c4-c4cc3ccc4O)C(OC3CC(C)(N)C(O)C(C)O3)c3ccc(c(Cl)c3)Oc3cc2cc(c3OC2OC(CO)C(O)C(O)C2OC2CC(C)(NCc3ccnc4ccccc34)C(O)C(C)O2)Oc2ccc(cc2Cl)C1O (stereo not drawn) [Compound 27]	0.125 (≈ 0.0721 µM)	1 (≈ 0.577 µM)	0.5 (≈ 0.288 µM)	0.5 (≈ 0.288 µM)	2 (≈ 1.15 µM)	8 (≈ 4.61 µM)	≤ 0.06	1 (≈ 0.577 µM)	≤ 0.06	0.5 (≈ 0.288 µM)	0.5 (≈ 0.288 µM)	0.5 (≈ 0.288 µM)	≤ 0.06	8 (≈ 4.61 µM)	0.125 (≈ 0.0721 µM)	0.5 (≈ 0.288 µM)	4 (≈ 2.31 µM)	16 (≈ 9.23 µM)	8 (≈ 4.61 µM)	≤ 0.06	mean geometric MIC, Vancomycin Resistant Strains [21]: 45 µg/mL; mean geometric MIC, Vancomycin Sensitive Strains [22]: 1.5 µg/mL
